From patent US12357924B2, “Process for producing enriched fraction from Bacopa monnieri extract for management of neurodegenerative disorders” (STAR HI HERBS PVT LTD, priority 2021, dated 2025)

Tests used:
[1] = test system: PTZ induced tonic-clonic convulsions; experiment: Pentylenetetrazole (PTZ) induced convulsions model; format: in vivo, rats; conditions: phenytoin sodium 25 mg/kg orally
Procedure: (§1) In further embodiment of the present invention the anticonvulsant activity of Bacopa monnieri extract Bacosane is determined using Pentylenetetrazole (PTZ) and the maximal electroshock seizure (MES) models. The analysis is performed on healthy Swiss mice of either sex, weighing about 25-30 g and Wistar rats of either sex, weighing about 150-200 g. The animals were grouped and housed in polyacrylic cages (38×23×10 cm) with not more than six animals per cage and maintained under standard laboratory conditions (temperature 25° C.) with dark and light cycle (12/12 h). All the animals were acclimatized to laboratory condition for a week before commencement of the analysis. The animals were randomly allocated into four groups of six each: Group I (control group), Group II, Group III, Group IV.
Group-I received 10 ml/kg of 1% NaCMC p.o. which served as control. […]
In the above analysis the percentage protection of animals was recorded as percentage of reduction in duration of seizures wherein the control group is assumed as 100%. […]
FIG. 5 depicts graphical representation of effect of Bacopa Monnieri extract Bacosane on tonic-clonic convolution in Pentylenetetrazole (PTZ) induced model in rats. […] The onset of convulsions, number of animals that convulsed and number of animals that were protected from clonic convulsions were recorded.

[2] = test system: MES induced convulsion; experiment: Maximal electroshock induced seizures (MES) model; format: in vivo, albino Wister rats
Procedure: as §1
Group-I received 10 ml/kg of 1% NaCMC p.o. which served as control.
Group-II received phenytoin sodium (25 mg/kg, orally) as standard controls in MES method and PTZ induced seizures method respectively.
Group-III and IV were administered two graded doses of Bacopa monnieri extract Bacosane i.e., 50 mg/kg and 100 mg/kg, respectively, p.o.
In the above analysis the percentage protection of animals was recorded as percentage of reduction in duration of seizures wherein the control group is assumed as 100%. The observations of group II, III and IV were compared with control Group-I. It is observed that Bacopa monnieri extract Bacosane has potential anticonvulsant activity due to the presence of certain active phytoconstituents. The anticonvulsant activity of Bacopa monnieri extract Bacosane involves GABAergic transmission and glutaminergic transmission or sodium channel blockage. However, it can be considered that the Bacopa monnieri extract Bacosane as a potent anticonvulsant supplement. The analysis and observations of Pentylenetetrazole (PTZ) and the maximal electroshock seizure (MES) models is shown in FIG. 3 to FIG. 6.
FIG. 3 is the graphical representation of effect of Bacopa Monnieri extract Bacosane on tonic extension phase in MES induced convulsion. […]

[3] = DPPH free radical scavenging assay; format: biochemical; conditions: 0.1 mM DPPH in methanol, 30 minutes, absorbance at 517 nm
Procedure: The free radical scavenging activity of Bacopa monnieri extract Bacosane and BHT is determined through the process comprising steps of: preparing solution of 0.1 mM DPPH in methanol, and 1.5 mL of this solution was mixed with 1.5 mL of extract in methanol at different concentrations (50, 100, 150, 200 and 250 m/mL); and measuring the absorbance at 517 nm, after leaving the above mixture for 30 minutes of incubation at dark room. Butylated hydroxytoluene (BHT) was used as the reference standard at different concentrations (20, 40, 60, 80 and 100 m/m1). The radical scavenging activity of DPPH was calculated using the following equation: [A0-A1)/A0]×100 where A0 is the absorbance of the control, and A1 is the absorbance of the standard. Then the percentage (%) of inhibition was plotted against concentration of the Bacopa monnieri extract Bacosane and BHT, and from the graph as shown in FIGS. 7A-7B half-maximal inhibitory concentration (IC50) was calculated to determine the efficacy of Bacopa monnieri extract Bacosane in comparison to standard butylated hydroxytoluene (BHT).

[4] = test system: behavior of rats in elevated plus maze; experiment: Elevated plus maze test; format: in vivo, Wistar strain rats; conditions: 5 minutes test; Bacosane 50 and 100 mg/kg p.o., diazepam 1 mg/kg; vs vehicle
Procedure: (§2) In further embodiment of the present invention the anxiolytic effect of Bacopa monnieri extract Bacosane is determined by employing 4 different tests i.e., the elevated plus maze (EPM) test, open field test (OFT), […] test and Light dark transition test. The compounds used in these four tests comprises Bacopa monnieri extract Bacosane; and Diazepam (1 mg/kg, i.p.) which is used as standard anxiolytic agent. The four tests are performed on Wistar strain rats of both sex of weighing 130 to 180 g, which were divided into four groups of six rats each (Group I, Group II, Group III and Group IV)
(§3) Group I vehicle (normal saline) at a dose of 10 ml/kg body weight
(§4) Group II received Bacopa monnieri extract Bacosane, at a dose of 50 mg/kg body weight
(§5) Group III received Bacopa monnieri extract Bacosane, at a dose of 100 mg/kg body weight
(§6) Group IV received standard drug, diazepam 1 mg/kg body weight
FIG. 9 depicts comparison of effect of Bacopa monnieri extract Bacosane and diazepam in behavior of rats in elevated plus maze test. […] The percentage of time spent (duration) in open arms and frequency of open arm entries were counted for a period of 5 minutes. […] The percentage of time spent in the open arms and number of open arm entries were calculated using the formulas [100×open/(open+enclosed)] and (100×open/total entries), respectively.

[5] = test system: behavior of rats in open field; experiment: Open field test; format: in vivo, Wistar strain rats; conditions: 5 minutes; Diazepam 1 mg/kg, Bacosane 50 mg/kg and 100 mg/kg; vs normal saline
Procedure: as §2, §3, §4, §5, §6
FIG. 11 depicts comparison of effect of Bacopa monnieri extract Bacosane and Diazepam on behavior of rats in open field test. The apparatus comprises a wooden box (60×60×60 cm). The area of the open field was divided into 16 squares (15×15 cm), the four inner squares in the center and 12 squares in the periphery along the walls. The other identical condition comprises of sound attenuated and dark experimental room. […]

[6] = test system: locomotor activity of the rats; experiment: Actophotometer method (locomotor activity); format: in vivo, Wistar strain rats; conditions: diazepam 1 mg/kg
Procedure: In further embodiment of the present invention the anxiolytic effect of Bacopa monnieri extract Bacosane is determined by employing 4 different tests i.e., the elevated plus maze (EPM) test, open field test (OFT), Astrophotometer test and Light dark transition test. The compounds used in these four tests comprises Bacopa monnieri extract Bacosane; and Diazepam (1 mg/kg, i.p.) which is used as standard anxiolytic agent. The four tests are performed on Wistar strain rats of both sex of weighing 130 to 180 g, which were divided into four groups of six rats each (Group I, Group II, Group III and Group IV)
In this test, the rats are placed in the digital Actophotometer in which a constant beam of light from six lights will be made to fall on corresponding photoelectric cells. The photoelectric cells get activated when an animal crosses the beam of light and thereby cuts off (crossing) the rays of light falling on it. After 1 hour of Bacopa Monnieri extract Bacosane administration the numbers of crossings are counted for a period of 10 minutes by the actophotometer. […]

[7] = test system: hippocampus; conditions: sub-chronic and chronic administration, 30 mg/kg; cited from earlier work

O=C1NC(=O)C(c2ccccc2)(c2ccccc2)N1 [Phenytoin, phenytoin sodium]
anticonvulsant effect (latency, onset of clonic convulsions, onset of tonic seizures) ([1]; PTZ 90 mg/kg i.p., Bacosane 50 and 100 mg/kg orally): significantly anticonvulsant activity | protection ([1]; PTZ model): 100% | hind limb tonic extension ([2]; MES model, compared to control group): decreased | extensor phase ([2]; MES model, phenytoin sodium 25 mg/kg orally): abolished the extensor phase completely | protection in animals against MES ([2]; phenytoin sodium 25 mg/kg orally): 100%

Cc1cc(C(C)(C)C)c(O)c(C(C)(C)C)c1 [butylated hydroxytoluene (BHT), butylated hydroxytoluene]
half-maximal inhibitory concentration (IC50), DPPH free radical scavenging [3]: 150.50 µg/mL

CN1C(=O)CN=C(c2ccccc2)c2cc(Cl)ccc21 [Diazepam]
closed arm number of entries and time spent [4]: significantly decreased | percentage of number of open arm entries and time spent in open arm [4]: significant increase | anxiolysis (increased ambulation, rearing and preening, decreased defecations) [5]: significantly exhibited anxiolysis | number of crossings of light beams compared to control group [6]: significantly reduced

C[C@H]1[C@H](C)CC[C@]2(C(=O)O)CC[C@]3(C)C(=CC[C@@H]4[C@@]5(C)C[C@@H](O)[C@H](O)[C@@](C)(CO)[C@@H]5CC[C@]43C)[C@H]12 [asiatic acid]
cell proliferation in the hippocampus [7]: increase | spatial working memory [7]: stimulate
